In brackets after ≈: the same amount, converted by molar mass. Square brackets hold non-standard residues; d marks the D form. Peptide text beside a SMILES is read from it. 2Nal = N[C@@H](Cc1ccc2ccccc2c1)C(=O)O; Cha = N[C@@H](CC1CCCCC1)C(=O)O
Legend:
Staphylococcus aureus [1] = experiment: Antibacterial activity against methicillin resistant Staphylococcus aureus ATCC 33591 assessed as inhibition of bacterial growth incubated for 16 to 20 hrs by broth micro-dilution method; assay type: functional; conditions: time 16-20 hrs
Enterococcus faecium [2] = experiment: Antibacterial activity against Vancomycin resistant Enterococcus faecium ATCC 700221 assessed as inhibition of bacterial growth incubated for 16 to 20 hrs by broth micro-dilution method; assay type: functional; conditions: time 16-20 hrs
Enterococcus faecium [3] = experiment: Antibacterial activity against vancomycin resistant Enterococcus faecium NCTC 12204 assessed as reduction in bacterial growth by microdilution broth method; assay type: functional
Staphylococcus aureus [4] = experiment: Antibacterial activity against methicillin-resistant Staphylococcus aureus ATCC 33591 assessed as reduction in bacterial growth incubated for 16 to 24 hrs by agar dilution method; assay type: functional; conditions: time 16-24 hrs
Escherichia coli [5] = experiment: Antibacterial activity against Escherichia coli ATCC 25922 assessed as reduction in bacterial growth incubated for 18 to 24 hrs by broth microdilution method; assay type: functional; conditions: time 18-24 hrs
[6] = Hemolytic activity in human RBC; assay type: toxicity, cell-based, Erythrocyte; conditions: red blood cells
Pseudomonas aeruginosa [7] = experiment: Antibacterial activity against Pseudomonas aeruginosa ATCC 15442 assessed as reduction in bacterial cell growth incubated for 18 to 24 hrs by two fold serial microdilution method; assay type: functional; conditions: time 18-24 hrs
[8] = Hemolytic activity against Red blood cells (unknown origin) incubated for 1 hr by spectrophotometric analysis; assay type: toxicity, cell-based, Erythrocyte
Escherichia coli [9] = experiment: Antibacterial activity against multi-drug resistant Escherichia coli clinical isolate 850 assessed as reduction in bacterial growth measured after 18 to 24 hrs by CLSI protocol-based Mueller-Hinton broth dilution method; assay type: functional; conditions: time 18-24 hrs
Staphylococcus aureus [10] = experiment: Antibacterial activity against Staphylococcus aureus ATCC 25923 assessed as reduction in bacterial growth measured after 18 to 24 hrs by CLSI protocol-based Mueller-Hinton broth dilution method; assay type: functional; conditions: time 18-24 hrs
Klebsiella pneumoniae = experiment: Antibacterial activity against Klebsiella pneumoniae ATCC 700603 assessed as reduction in bacterial growth measured after 18 to 24 hrs by CLSI protocol-based Mueller-Hinton broth dilution method; assay type: functional; conditions: time 18-24 hrs
Bacillus subtilis = experiment: Antibacterial activity against Bacillus subtilis ATCC 23857 assessed as reduction in bacterial growth measured after 18 to 24 hrs by CLSI protocol-based Mueller-Hinton broth dilution method; assay type: functional; conditions: time 18-24 hrs
Acinetobacter baumannii = experiment: Antibacterial activity against multi-drug resistant Acinetobacter baumannii clinical isolate 9840 assessed as reduction in bacterial growth measured after 18 to 24 hrs by CLSI protocol-based Mueller-Hinton broth dilution method; assay type: functional; conditions: time 18-24 hrs
Pseudomonas aeruginosa [11] = experiment: Antibacterial activity against multi-drug resistant Pseudomonas aeruginosa clinical isolate 119 assessed as reduction in bacterial growth measured after 18 to 24 hrs by CLSI protocol-based Mueller-Hinton broth dilution method; assay type: functional; conditions: time 18-24 hrs
Escherichia coli [12] = experiment: Antibacterial activity against Escherichia coli ATCC 25922 assessed as reduction in bacterial growth; assay type: functional
Staphylococcus aureus [13] = experiment: Antibacterial activity against Staphylococcus aureus ATCC 29213 assessed as bacterial growth inhibition measured after 18 hrs by CLSI protocol based two-fold serial microdilution method; assay type: functional
Escherichia coli [14] = experiment: Antibacterial activity against Escherichia coli ATCC 25922 assessed as reduction in bacterial growth incubated for 18 to 20 hrs by Mueller Hinton broth dilution method; assay type: functional; conditions: time 18-20 hrs

## CC[C@@H](C)[C@@H](NC(=O)[C@H](CCCNC(=N)N)NC(=O)[C@H](CCCCN)NC(=O)[C@H](CC(C)C)NC(=O)[C@H](CC1CCCCC1)NC(=O)CN)C(=O)N[C@@H](CCCCN)C(=O)N[C@H](C(=O)N[C@@H](CC(C)C)C(=O)N[C@@H](CC1CCCCC1)C(N)=O)[C@@H](C)O
Staphylococcus aureus [1]
  MIC: 56.8 µM (≈ 70.1 µg/mL)
Enterococcus faecium [2]
  MIC: 56.8 µM (≈ 70.1 µg/mL)

## CC[C@H](C)[C@H](NC(=O)[C@H](CCCNC(=N)N)NC(=O)[C@H](CCCCN)NC(=O)[C@H](CC(C)C)NC(=O)[C@H](CC(C)C)NC(=O)CN)C(=O)N[C@@H](CCCCN)C(=O)N[C@@H](CCCCN)C(=O)N[C@@H](CC(C)C)C(=O)N[C@@H](CC1CCCCC1)C(N)=O (H-GLLKRIKKL[Cha]-NH2)
Enterococcus faecium [3]
  MIC: 9.5 µM (≈ 11.6 µg/mL)
Staphylococcus aureus [4]
  MIC: 9.5 µM (≈ 11.6 µg/mL)
Escherichia coli [5]
  MIC: 9.5 µM (≈ 11.6 µg/mL)
[6]
  HC50: 12.4 µM
Pseudomonas aeruginosa [7]
  MIC: 4.6 µM (≈ 5.62 µg/mL)
[8]
  HC50 at 1 h: 12.4 µM

## CC[C@H](C)[C@H](NC(=O)[C@H](CCCNC(=N)N)NC(=O)[C@@H](CCCCN)NC(=O)[C@H](CC(C)C)NC(=O)[C@H](CC(C)C)NC(=O)CNC(C)=O)C(=O)N[C@H](CCCCN)C(=O)N[C@H](C(=O)N[C@@H](CC(C)C)C(=O)N[C@@H](CC(C)C)C(=O)NC(Cc1cn(CCCC[C@H](NC(C)=O)C(=O)NCC(=O)N[C@@H](CC(C)C)C(=O)N[C@@H](CC(C)C)C(=O)N[C@@H](CCCCN)C(=O)N[C@H](CCCNC(=N)N)C(=O)N[C@H](C(=O)N[C@H](CCCCN)C(=O)N[C@H](C(=O)N[C@@H](CC(C)C)C(=O)N[C@@H](CC(C)C)C(N)=O)[C@@H](C)O)[C@@H](C)CC)nn1)C(N)=O)[C@@H](C)O (some centres undefined)
Escherichia coli [9]
  MIC: 16 µM (≈ 42.2 µg/mL)
Staphylococcus aureus [10]
  MIC: 128 µM (≈ 338 µg/mL)
Klebsiella pneumoniae
  MIC: 16 µM (≈ 42.2 µg/mL)
Bacillus subtilis
  MIC: 4 µM (≈ 10.6 µg/mL)
Acinetobacter baumannii
  MIC: 8 µM (≈ 21.1 µg/mL)
Pseudomonas aeruginosa [11]
  MIC: 16 µM (≈ 42.2 µg/mL)

## CC[C@H](C)[C@H](NC(=O)[C@H](CCCCN)NC(=O)[C@H](CC(C)C)NC(=O)[C@H](CC(C)C)NC(=O)CN)C(=O)N[C@H](C(=O)N[C@@H](CCCCN)C(=O)N[C@H](C(=O)N[C@@H](CC(C)C)C(=O)N[C@@H](CC(C)C)C(N)=O)[C@@H](C)O)[C@@H](C)CC (H-GLLKIIKTLL-NH2)
[6]
  HC50: 26.1 µM
Escherichia coli [12]
  MIC: 1.8 µM (≈ 2 µg/mL)
Staphylococcus aureus [13]
  MIC: 1.8 µM (≈ 2 µg/mL)

## CC(C)C[C@H](NC(=O)[C@H](CC(C)C)NC(=O)[C@@H](NC(=O)[C@H](CCCCN)NC(=O)[C@H](Cc1ccc2ccccc2c1)NC(=O)[C@H](CCCCN)NC(=O)[C@H](CCCCN)NC(=O)[C@H](CC(C)C)NC(=O)[C@H](CC1CCCCC1)NC(=O)CN)[C@@H](C)O)C(N)=O (H-G[Cha]LKK[2Nal]KTLL-NH2)
Enterococcus faecium [3]
  MIC: 9.5 µM (≈ 11.9 µg/mL)
Staphylococcus aureus [4]
  MIC: 28.4 µM (≈ 35.5 µg/mL)
Escherichia coli [5]
  MIC: 9.5 µM (≈ 11.9 µg/mL)
[6]
  HC50: 15.3 µM
Pseudomonas aeruginosa [7]
  MIC: 9.5 µM (≈ 11.9 µg/mL)
[8]
  HC50 at 1 h: 15.3 µM

## CC[C@H](C)[C@H](NC(=O)[C@@H](NC(=O)[C@H](CCCCN)NC(=O)[C@H](CC(C)C)NC(=O)[C@H](CC(C)C)NC(=O)CN)C(C)C)C(=O)N[C@@H](CCCCN)C(=O)N[C@H](C(=O)N[C@@H](CC(C)C)C(=O)N[C@@H](CC(C)C)C(N)=O)[C@@H](C)O (H-GLLKVIKTLL-NH2)
[6]
  HC50: 54.7 µM
Escherichia coli [12]
  MIC: 2.7 µM (≈ 2.96 µg/mL)
Staphylococcus aureus [13]
  MIC: 2.7 µM (≈ 2.96 µg/mL)

## CC(C)C[C@H](NC(=O)CN)C(=O)N[C@@H](CC(C)C)C(=O)N[C@@H](CCCCN)C(=O)N[C@@H](CCCCN)C(=O)N[C@@H](Cc1ccc2ccccc2c1)C(=O)N[C@@H](CCCCN)C(=O)N[C@@H](CCCCN)C(=O)N[C@@H](CC(C)C)C(=O)N[C@@H](CC1CCCCC1)C(N)=O (H-GLLKK[2Nal]KKL[Cha]-NH2)
Staphylococcus aureus [1]
  MIC: 9.5 µM (≈ 12.1 µg/mL)
Enterococcus faecium [2]
  MIC: 3.2 µM (≈ 4.09 µg/mL)
Escherichia coli [14]
  MIC: 16 µM (≈ 20.4 µg/mL)
